# Test results taken from the supplement of paper PMC10307832.
# What was measured:
# Assay in all cases: relative viability (nuclei count vs DMSO), 5 days (fraction); higher = more cells survive
# [1] = system: NCI-H838
# Outline: (§1)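 Medians of duplicate plates are given as relative viability. That measure is the nuclei count in treated wells divided by the count in vehicle wells. Counts were taken on 4× images of lung cancer cell lines in 1536-well plates, 5 days after pin-tool dosing the day after seeding with one drug alone or a fixed anchor-drug dose plus five library-drug doses (not always all listed) in √10 steps.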
# [2] = system: UMC-11
# Outline: as §1
# [3] = system: HCC-15
# Outline: as §1
# [4] = system: NCI-H1666
# Outline: as §1
# [5] = system: LU99A
# Outline: as §1
# [6] = system: LC-2-ad
# Outline: as §1
# [7] = system: SK-MES-1
# Outline: as §1
# [8] = system: LCLC-97TM1
# Outline: as §1
# [9] = system: ChaGo-K-1
# Outline: as §1
# [10] = system: BEN
# Outline: as §1
# [11] = system: NCI-H661
# Outline: as §1
# [12] = system: HCC-78
# Outline: as §1
# [13] = system: NCI-H596
# Outline: as §1
# [14] = system: NCI-H322M
# Outline: as §1
# [15] = system: NCI-H1651
# Outline: as §1
# [16] = system: NCI-H650
# Outline: as §1
# [17] = system: LXF-289
# Outline: as §1
# [18] = system: NCI-H2342
# Outline: as §1
# [19] = system: NCI-H358
# Outline: as §1
# [20] = system: PC-3 [JPC-3]
# Outline: as §1
# [21] = system: LK-2
# Outline: as §1
# [22] = system: NCI-H2087
# Outline: as §1
# [23] = system: NCI-H1944
# Outline: as §1
structure (smiles),measurement,setting,value
Oc1nc(-c2ccc(C(F)(F)F)cc2)nc2c1CSCC2 [XAV939] + Cc1cc(Nc2cc(N3CCN(C)CC3)nc(Sc3ccc(NC(=O)C4CC4)cc3)n2)n[nH]1 [Tozasertib] (partner 0.1 µM),relative viability,[1]; first compound 0.08 µM,0.274
same,relative viability,[1]; first compound 0.253 µM,0.259
same,relative viability,[1]; first compound 0.8 µM,0.276
same,relative viability,[1]; first compound 2.53 µM,0.209
same,relative viability,[2]; first compound 0.08 µM,0.189
same,relative viability,[2]; first compound 0.253 µM,0.205
same,relative viability,[2]; first compound 0.8 µM,0.19
same,relative viability,[2]; first compound 2.53 µM,0.211
same,relative viability,[3]; first compound 0.08 µM,0.452
same,relative viability,[3]; first compound 0.253 µM,0.382
same,relative viability,[3]; first compound 0.8 µM,0.394
same,relative viability,[3]; first compound 2.53 µM,0.368
same,relative viability,[4]; first compound 0.08 µM,0.576
same,relative viability,[4]; first compound 0.253 µM,0.565
same,relative viability,[4]; first compound 0.8 µM,0.599
same,relative viability,[4]; first compound 2.53 µM,0.582
same,relative viability,[5]; first compound 0.08 µM,0.268
same,relative viability,[5]; first compound 0.253 µM,0.261
same,relative viability,[5]; first compound 0.8 µM,0.237
same,relative viability,[5]; first compound 2.53 µM,0.284
same,relative viability,[6]; first compound 0.08 µM,0.481
same,relative viability,[6]; first compound 0.253 µM,0.446
same,relative viability,[6]; first compound 0.8 µM,0.488
same,relative viability,[6]; first compound 2.53 µM,0.381
same,relative viability,[7]; first compound 0.08 µM,0.956
same,relative viability,[7]; first compound 0.253 µM,0.816
same,relative viability,[7]; first compound 0.8 µM,0.807
same,relative viability,[7]; first compound 2.53 µM,0.768
same,relative viability,[8]; first compound 0.08 µM,0.344
same,relative viability,[8]; first compound 0.253 µM,0.238
same,relative viability,[8]; first compound 0.8 µM,0.186
same,relative viability,[8]; first compound 2.53 µM,0.352
same,relative viability,[9]; first compound 0.08 µM,0.216
same,relative viability,[9]; first compound 0.253 µM,0.223
same,relative viability,[9]; first compound 0.8 µM,0.222
same,relative viability,[9]; first compound 2.53 µM,0.209
same,relative viability,[10]; first compound 0.08 µM,0.579
same,relative viability,[10]; first compound 0.253 µM,0.451
same,relative viability,[10]; first compound 0.8 µM,0.542
same,relative viability,[10]; first compound 2.53 µM,0.444
same,relative viability,[11]; first compound 0.08 µM,0.364
same,relative viability,[11]; first compound 0.253 µM,0.346
same,relative viability,[11]; first compound 0.8 µM,0.365
same,relative viability,[11]; first compound 2.53 µM,0.339
same,relative viability,[12]; first compound 0.08 µM,0.558
same,relative viability,[12]; first compound 0.253 µM,0.373
same,relative viability,[12]; first compound 0.8 µM,0.531
same,relative viability,[12]; first compound 2.53 µM,0.368
same,relative viability,[13]; first compound 0.08 µM,0.915
same,relative viability,[13]; first compound 0.253 µM,0.798
same,relative viability,[13]; first compound 0.8 µM,1.07
same,relative viability,[13]; first compound 2.53 µM,0.939
same,relative viability,[14]; first compound 0.08 µM,0.553
same,relative viability,[14]; first compound 0.253 µM,0.432
same,relative viability,[14]; first compound 0.8 µM,0.431
same,relative viability,[14]; first compound 2.53 µM,0.4
same,relative viability,[15]; first compound 0.08 µM,0.726
same,relative viability,[15]; first compound 0.253 µM,0.58
same,relative viability,[15]; first compound 0.8 µM,0.763
same,relative viability,[15]; first compound 2.53 µM,0.639
same,relative viability,[16]; first compound 0.08 µM,0.883
same,relative viability,[16]; first compound 0.253 µM,0.691
same,relative viability,[16]; first compound 0.8 µM,0.646
same,relative viability,[16]; first compound 2.53 µM,0.611
same,relative viability,[17]; first compound 0.08 µM,0.215
same,relative viability,[17]; first compound 0.253 µM,0.187
same,relative viability,[17]; first compound 0.8 µM,0.161
same,relative viability,[17]; first compound 2.53 µM,0.111
same,relative viability,[18]; first compound 0.08 µM,0.592
same,relative viability,[18]; first compound 0.253 µM,0.511
same,relative viability,[18]; first compound 0.8 µM,0.419
same,relative viability,[18]; first compound 2.53 µM,0.301
same,relative viability,[19]; first compound 0.08 µM,0.112
same,relative viability,[19]; first compound 0.253 µM,0.0945
same,relative viability,[19]; first compound 0.8 µM,0.0995
same,relative viability,[19]; first compound 2.53 µM,0.0987
same,relative viability,[20]; first compound 0.08 µM,0.901
same,relative viability,[20]; first compound 0.253 µM,0.833
same,relative viability,[20]; first compound 0.8 µM,0.857
same,relative viability,[20]; first compound 2.53 µM,0.744
same,relative viability,[21]; first compound 0.08 µM,0.185
same,relative viability,[21]; first compound 0.253 µM,0.171
same,relative viability,[21]; first compound 0.8 µM,0.157
same,relative viability,[21]; first compound 2.53 µM,0.172
same,relative viability,[22]; first compound 0.08 µM,0.234
same,relative viability,[22]; first compound 0.253 µM,0.231
same,relative viability,[22]; first compound 0.8 µM,0.256
same,relative viability,[22]; first compound 2.53 µM,0.181
same,relative viability,[23]; first compound 0.08 µM,0.261
same,relative viability,[23]; first compound 0.253 µM,0.228
same,relative viability,[23]; first compound 0.8 µM,0.235
same,relative viability,[23]; first compound 2.53 µM,0.224
